{"source": "patent US9550811B2", "about": "“Peptide scaffold design” (BIONOR IMMUNO AS, priority 2010, dated 2017)", "key": {"[1]": {"system": "PBMC samples from HCV patients", "test": "Human IFN-gamma cytotoxic T-cell (CTL) response by ELISPOT assay", "type": "cell-based", "description": "Human IFN-Gamma Cytotoxic T-Cell (CTL) Response by ELISPOT Assay\nBriefly, at day 1, PBMC samples from HCV patients were incubated in flasks (430 000 PBMCs/cm2) for 2 h at 37° C., 5% CO2 in covering amount of culture media (RPMI 1640 Fisher Scientific; Cat No. PAAE15-039 supplemented with L-Glutamine, (MedProbe Cat. No. 13E17-605E, 10% Foetal Bovine serum (FBS), Fisher Scientific Cat. No. A15-101) and Penicillin/Streptomycin, (Fisher Acientific Cat. No. P11-010) in order to allow adherence of monocytes. Non-adherent cells were isolated, washed, and frozen in 10% V/V DMSO in FBS until further usage. Adherent cells were carefully washed with culture media, followed by incubation at 37° C. until day 3 in culture media containing 2 μg/ml final concentration of hrGM-CSF (Xiamen amoytop biotech co, cat no: 3004.9090.90) & 1 μg/ml hrIL-4 (Invitrogen, Cat no: PHC0043), and this procedure was then repeated at day 6. At day 7, cultured dendritic cells (5 000-10 000 per well) were added to ELISPOT (Millipore multiscreen HTS) plates coated with 0.5 μg/well anti-human γ Interferon together with thawed autologous non-adherent cells (200 000 per well), antigen samples (1-8 ug/ml final concentration for peptide antigens; 5 ug/ml final concentration for Concanavalin A (Sigma, Cat no: C7275) or PHA (Sigma, Cat no: L2769)) & anti-Anergy antibodies (0.03-0.05 ug/ml final concentration for both anti-PD-1 (eBioscience, cat no: 16-9989-82) & anti-PD-L1 (eBioscience, cat no: 16-5983-82)). Plates were incubated overnight and spots were developed according to manufacturer. Spots were read on ELISPOT reader (CTL-ImmunoSpot® S5 UV Analyzer)."}, "human PBMCs [2]": {"system": "human PBMCs", "type": "cell-based"}, "DC-cells": {"system": "DC-cells", "test": "Cell penetration assay: staining for biotinylated peptides, dendritic cells gated as CD11c+", "type": "cell-based, human", "conditions": "low concentration of peptides (208 uM)", "description": "A set of peptides were biotinylated on N-terminal, and different combinations of aminoacids, with respect to length and type, were added to the sequence box X^1, X^3 and X^4 in the peptides as illustrated by the diagram below. The peptides were tested on cells grown from one individual blood donor.\n(§1) 96-well U-bottom polystyrene plates (NUNC, cat no: 163320) were used for staining of human PBMCs. Briefly, 8 ul of N- or C-terminally biotinylated peptides according to table 1 or table 2 (i.e. 5 mM, 2.5 mM & 1.25 mM tested for each peptide) were incubated at 37° C. for 2 h with 40 ul of PBMC (12.5×10^6 cells/ml) from blood donors. Cells were then washed 3× with 150 ul of Cellwash (BD, cat no: 349524), followed by resuspension of each cell pellet with 100 ul of Trypsin-EDTA (Sigma, cat no: T4424), then incubated at 37° C. for 5 min. Trypsinated cells were then washed 3× with 150 ul of Cellwash (BD, cat no: 349524), followed by resuspension with BD Cytofix/Cytoperm™ plus (BD, cat no: 554715), then incubated at 4° C. for 20 min according to manufacturer. Cells were then washed 2× with 150 ul PermWash (BD, cat no: 554715). Cells were then stained with Streptavidin-APC (BD, cat no: 554067) & Anti-hCD11c (eBioscience, cat no: 12-0116) according to manufacturer at 4° C. for 30 min aiming to visualize biotinylated peptides & dendritic cells, respectively. Cells were then washed 3× with 150 ul PermWash, followed by resuspension in staining buffer (BD, cat no: 554656) before flow cytometry. Dendritic cells were gated as CD11c+ events outside lymphocyte region (i.e. higher FSC & SSC signals than lymphocytes). 200 000 total cells were acquired on a FACSCanto II flow cytometer with HTS loader, and histograms for both total cells & dendritic cells with respect to peptide-fluorescence (i.e. GeoMean) were prepared.\nAs shown in table 4 the peptides according to the invention had the ability to allocate through the cell membrane."}, "human PBMCs [3]": {"system": "human PBMCs", "test": "Extracellular staining for biotinylated peptides (flow cytometry)", "type": "cell-based", "description": "as §1, with “peptide; all peptides manufactured by Schafer)” for “peptide)”, “349524),” for “349524), followed by resuspension of each cell pellet with 100 ul of Trypsin-EDTA (Sigma, cat no: T4424), then incubated at 37° C. for 5 min. Trypsinated cells were then washed 3× with 150 ul of Cellwash (BD, cat no: 349524), followed by resuspension with BD Cytofix/Cytoperm™ plus (BD, cat no: 554715), then incubated at 4° C. for 20 min according to manufacturer. Cells were then washed 2× with 150 ul PermWash (BD, cat no: 554715). Cells were”, “of Cellwash (BD, cat no: 349524),” for “PermWash,”"}, "[4]": {"conditions": "Example 4, negative control = 1.00"}}, "note": "Several values for one entry are separate records, joined by “and”; a condition that tells them apart may be missing. Equal entries are not always repeated. Where two headings read alike, the source gives them in different places."}
{"substance": "Concanavalin A [ConA, reference compound]", "values": [{"measurement": "IFN-g ELISPOT (T-cell spots)", "setting": "[1]; Patient A (HCV patient)", "result": "5090 and 5035"}, {"measurement": "IFN-g ELISPOT (T-cell spots)", "setting": "[1]; Patient B (HCV patient)", "result": "2605 and 2725"}, {"measurement": "IFN-g ELISPOT (T-cell spots)", "setting": "[1]; Patient C (HCV patient)", "result": "1355 and 700"}, {"measurement": "IFN-g ELISPOT (T-cell spots)", "setting": "[1]; Patient D (HCV patient)", "result": "529 and 512"}]}
{"substance": "PVVHLTLRQAGDDFSR [N-biotin, reference compound]", "values": [{"measurement": "Intracellular staining, median", "setting": "human PBMCs [2]", "result": 1.00}, {"measurement": "Results on DC-cells (geomean peptide-fluorescence)", "setting": "DC-cells; BC 16", "result": "3591 and 2271"}, {"measurement": "Results on DC-cells (geomean peptide-fluorescence)", "setting": "DC-cells; BC 16, listed as n-biotin", "result": 3745}, {"measurement": "Results on DC-cells (geomean peptide-fluorescence)", "setting": "DC-cells; BC43", "result": 3631}, {"measurement": "Results on DC-cells (geomean peptide-fluorescence)", "setting": "DC-cells; BC43, listed as n-biotin", "result": 1967}, {"measurement": "Extracellular staining, median", "setting": "human PBMCs [3]; [4]", "result": 1.00}]}
{"substance": "RQIKIWFQNRRMKWKK [P-biotin, reference compound]", "values": [{"measurement": "Intracellular staining, median", "setting": "human PBMCs [2]", "result": 2.73}, {"measurement": "Results on DC-cells (geomean peptide-fluorescence)", "setting": "DC-cells; BC43", "result": "26212 and 33545"}, {"measurement": "Extracellular staining, median", "setting": "human PBMCs [3]; [4]", "result": 9.15}]}
{"substance": "RRGYIPLVGAPLGBRVARALAHGVRV [51b]", "values": [{"measurement": "Results on DC-cells (geomean peptide-fluorescence)", "setting": "DC-cells; BC 16", "result": 7000}, {"measurement": "Results on DC-cells (geomean peptide-fluorescence)", "setting": "DC-cells; BC43", "result": 6082}, {"measurement": "IFN-g ELISPOT (T-cell spots)", "setting": "[1]; Patient A (HCV patient), listed as 310-51b", "result": "45 and 40"}, {"measurement": "IFN-g ELISPOT (T-cell spots)", "setting": "[1]; Patient B (HCV patient), listed as 310-51b", "result": "50 and 85"}, {"measurement": "IFN-g ELISPOT (T-cell spots)", "setting": "[1]; Patient C (HCV patient), listed as 310-51b", "result": "45 and 75"}, {"measurement": "IFN-g ELISPOT (T-cell spots)", "setting": "[1]; Patient D (HCV patient), listed as 310-51b", "result": "9 and 13"}]}
{"substance": "RRIRNLGRVIETLTGBRLZGYIPLIGA [compound 42]", "values": [{"measurement": "Results on DC-cells (geomean peptide-fluorescence)", "setting": "DC-cells; BC 16", "result": 74920}, {"measurement": "Results on DC-cells (geomean peptide-fluorescence)", "setting": "DC-cells; BC43", "result": 65811}, {"measurement": "IFN-g ELISPOT (T-cell spots)", "setting": "[1]; Patient A (HCV patient), listed as 310-42", "result": "75 and 80"}, {"measurement": "IFN-g ELISPOT (T-cell spots)", "setting": "[1]; Patient D (HCV patient), listed as 310-42", "result": "13 and 11"}]}
{"substance": "RRSRNLGKVIDTLTCBRLMGYIPLVGA [42b]", "values": [{"measurement": "Results on DC-cells (geomean peptide-fluorescence)", "setting": "DC-cells; BC 16", "result": 61968}, {"measurement": "Results on DC-cells (geomean peptide-fluorescence)", "setting": "DC-cells; BC43", "result": 19181}, {"measurement": "IFN-g ELISPOT (T-cell spots)", "setting": "[1]; Patient A (HCV patient), listed as 310-42b", "result": "90 and 115"}, {"measurement": "IFN-g ELISPOT (T-cell spots)", "setting": "[1]; Patient B (HCV patient), listed as 310-42b", "result": "60 and 80"}, {"measurement": "IFN-g ELISPOT (T-cell spots)", "setting": "[1]; Patient D (HCV patient), listed as 310-42b", "result": "13 and 11"}]}
{"substance": "WGYIPLVGAPLGRRVARALAHGVRV [compound 19]", "values": [{"measurement": "Intracellular staining, median", "setting": "human PBMCs [2]", "result": 17.41}, {"measurement": "Results on DC-cells (geomean peptide-fluorescence)", "setting": "DC-cells; BC 16", "result": 8417}, {"measurement": "Results on DC-cells (geomean peptide-fluorescence)", "setting": "DC-cells; BC43", "result": 6372}, {"measurement": "Extracellular staining, median", "setting": "human PBMCs [3]", "result": 1.37}]}
